Measurements reported in patent publication US20240010616A1, “SIPONIMOD SALTS AND COCRYSTALS” (Synthon B.V., priority 2020, published 2024).
Entries after “also recorded” stand apart in the source; their conditions may differ.

Assays:
[1] = Comparison of crystals (SEM pictures): crystal size and proneness to charging; assay type: physicochemical; conditions: compared with prior art fumarate salt; for Proneness of crystals to charging: relates to processability into final forms (tablets); for Crystal size: crystals depicted in FIGS. 17 to 28
Protocol: • DCS patterns were obtained using the following conditions: 10° C./min->250° C. • Pictures of crystals were obtained by SEM Jeol JCM-6000. • Nuclear magnetic resonance spectroscopy (NMR) was performed using Avance III 400 MHz NMR spectrometer.
Prior art fumarate salt was prepared according to procedure described in WO2010/080409. In FIGS. 17 to 22 the crystals of prior art salt (FIG. 22) and crystals of salts of the presented invention (FIGS. 17 to 21) are depicted.
The crystals of solid Form 11 of cocrystal of Siponimod with adipic acid (2:1) are depicted in FIGS. 25 to 27. The crystal of Siponimod fumarate, Form A, are depicted in FIG. 28.

[2] = Water activity measured by DVS (weight difference between 0 and 90% relative humidity); assay type: physicochemical; conditions: 25° C., 0-90-0% relative humidity, step 10%; compared with prior art Siponimod Fumarate (1:0.5), Form A
Protocol: Water activity of the prior art form and solid forms of presented invention was measured: DVS machine ProUmid SPX-1μ Advance, 25° C., 0-90-0% relative humidity, step 10%, maximal time per step 10 hours. Equilibrium bandwidth 0.05%/60 minutes.
Water activity: a difference between the weights of the sample in 0 and 90% of relative humidity at a constant temperature. It corresponds to the amount of water taken by the tested compound when the humidity changes from 0 to 90% at a constant temperature. The higher water activity the more water can be taken by the compound and that might result in lower purity of the compound because hydrolysis impurities can be formed.

Row | Proneness of crystals to charging [1] | Crystal size [1] | SMILES | Water activity [2]
1 | prone to charging | small crystals | CCc1cc(/C(C)=N/OCc2ccc(C3CCCCC3)c(C(F)(F)F)c2)ccc1CN1CC(C(=O)O)C1.CCc1cc(/C(C)=N/OCc2ccc(C3CCCCC3)c(C(F)(F)F)c2)ccc1CN1CC(C(=O)O)C1.O=C(O)/C=C/C(=O)O [Prior art fumarate salt, reference compound] | –
2 | less prone to charging | much bigger than crystals of Form A | CCc1cc(/C(C)=N/OCc2ccc(C3CCCCC3)c(C(F)(F)F)c2)ccc1CN1CC(C(=O)O)C1.CCc1cc(/C(C)=N/OCc2ccc(C3CCCCC3)c(C(F)(F)F)c2)ccc1CN1CC(C(=O)O)C1.O=C(O)CCCCC(=O)O [Form 11] | lower water activity than Siponimod fumarate, Form A; also recorded: better comparing to prior art forms
